Reference: patent US20120172228A1, “ALCOHOL ALKOXYLATES AS ADJUVANTS FOR AGROCHEMICAL FORMULATIONS” (SYNGENTA CROP PROTECTION, LLC, priority 2009, published 2012)

Tests used:
Type in all cases: in vivo
French bean = test: Phytotoxicity of adjuvant to French bean; conditions: 7 days after spray application
Description: (§1) The plants were sprayed with water at a rate of approximately 500 litres per hectare, the water containing 0.1% v/v or 0.2% v/v adjuvant. The plants were assessed for phytotoxicity 7 days after spray application. Each experiment was replicated twice and the results averaged. In the control experiment the plants were sprayed with water and no phytotoxicity was observed.

Chinese cabbage = test: Phytotoxicity of adjuvant to Chinese cabbage; conditions: 7 days after spray application
Description: as §1

soybean = test: Phytotoxicity of adjuvant to soybean; conditions: 7 days after spray application
Description: as §1

[1] = tested on: brachiaria platyphyla (BRAPL), digitaria sanguinalis (DIGSA), polygonum convolvulus (POLCO), amaranthus tuberculatus (AMATU); test: Adjuvant with herbicide mesotrione, track sprayer, mean across four weed species
[2] = tested on: polygonum convolvulus (POLCO); test: Adjuvant with herbicide mesotrione on POLCO
[3] = tested on: brachiaria platyphyla (BRAPL), digitaria sanguinalis (DIGSA), polygonum convolvulus (POLCO); test: Adjuvant with herbicide mesotrione, mean across three weed species (Example 20); conditions: mesotrione 30, 60 or 90 g/ha; Sample 13 0.2%, Tween 20 0.5%; 14 and 21 days
Description: (§2) In this example Sample 13 from Table 1 was compared to the oil adjuvant blend Turbocharge™. The herbicide fomesafen was applied to the weed species xanthium strumarium (XANST), setaria viridis (SETVI), abutilon theophrasti (ABUTH), and chenopodium album (CHEAL) at rates of 60 or 120 grams per hectare, using a laboratory track sprayer. Each experiment was replicated four times and the percentage damage to the weeds was assessed visually at time periods of 7, 14 and 21 days after application. Each adjuvant was applied at a rate of 0.5% of the volume of the spray water. Four effects were evaluated: pesticide rate (2 levels), adjuvant type (two levels), weed species (four levels) and days after application (three levels). A standard simple linear model was constructed to judge the significance of these effects. […] The effect of each adjuvant was pulled out from the model and the least significant differences evaluated using a Student's t method. […]
In this example the rate response of the butylene oxide adjuvant 13 of Table 1 was measured to display the excellent performance of this adjuvant compared to the commercial adjuvant Tween™20, used at a rate of 0.5% by volume. […] In each case the experiments were replicated four times and the percentage damage to the weeds was assessed visually at time periods of 14 and 21 days after application.

[4] = tested on: amaranthus tuberculatus (AMATU); test: Adjuvant with herbicide mesotrione on AMATU
[5] = tested on: brachiaria platyphyla (BRAPL); test: Adjuvant with herbicide mesotrione on BRAPL
[6] = tested on: brachiaria decumbens (BRADE), digitaria sanguinalis (DIGSA), polygonum convolvulus (POLCO), amaranthus retroflexus (AMARE); test: Adjuvant with herbicide mesotrione, mean across four weed species (Example 28); conditions: mesotrione 45 or 90 g/ha; Sample 28 0.2%, Tween 20 0.5%; 7, 14 and 21 days
Description: as §2, with “levels).” for “levels). A standard simple linear model was constructed to judge the significance of these effects.”
In this example the rate response of a non-ethoxylated butylene oxide adjuvant was measured at an adjuvant rate of 0.2% by volume in order to display the excellent performance of this adjuvant compared to the commercial adjuvant' Tween 20, which was used at a rate of 0.5% by volume. […] In each case the experiments were replicated three times and the percentage damage to the weeds was assessed visually at time periods of 7, 14 and 21 days after application. […]

[7] = tested on: digitaria sanguinalis (DIGSA); test: Adjuvant with herbicide mesotrione on DIGSA
[8] = mesotrione 45 and 90 g/ha, adjuvants 0.5% of spray water, 7, 14 and 21 days after application
[9] = mesotrione 45 or 90 g/ha, Sample 27 0.2%, Tween 20 0.5%, 7, 14 and 21 days
[10] = mesotrione 30, 60 or 90 g/ha, Sample 13 0.2%, Tween 20 0.5%, 14 and 21 days

## CCCCCCCC/C=C\CCCCCCCCOCCOCCOCCOCCOCCOCCOCCOCCOCCOCCO [Genapol O100]
French bean; 0.1% v/v adjuvant in water
  French bean % phytotoxicity: 5%
French bean; 0.2% v/v adjuvant in water
  French bean % phytotoxicity: 10%
Chinese cabbage; 0.1% v/v adjuvant in water
  Chinese cabbage % phytotoxicity: 2%
Chinese cabbage; 0.2% v/v adjuvant in water
  Chinese cabbage % phytotoxicity: 10%
soybean; 0.1% v/v adjuvant in water
  Soybean % phytotoxicity: 3.5%
soybean; 0.2% v/v adjuvant in water
  Soybean % phytotoxicity: 15%

## Tween 20
[1]; [8]
  mean efficacy (percentage damage to the weeds), All weeds: 63.861; B %
[1]; [9]
  mean efficacy (percentage damage to the weeds), All weeds: 54.54; A %
[2]; [10]
  mean efficacy (percentage damage to the weeds), POLCO: 32.77; B %
[2]; [8]
  mean efficacy (percentage damage to the weeds), POLCO: 95.44; A %
[2]; [9]
  mean efficacy (percentage damage to the weeds), POLCO: 73.61; A %
[3]
  mean efficacy (percentage damage to the weeds), All weeds: 26.11; B %
[4]; [8]
  mean efficacy (percentage damage to the weeds), AMATU: 66.94; AB %
[4]; [9]
  mean efficacy (percentage damage to the weeds), AMATU: 69.86; A %
[5]; [10]
  mean efficacy (percentage damage to the weeds), BRAPL: 26.11; B %
[5]; [8]
  mean efficacy (percentage damage to the weeds), BRAPL: 44.72; B %
[5]; [9]
  mean efficacy (percentage damage to the weeds), BRAPL: 33.06; B %
[6]
  Mean kill (%): 65.8%
[7]; [10]
  mean efficacy (percentage damage to the weeds), DIGSA: 45.55; A %
[7]; [8]
  mean efficacy (percentage damage to the weeds), DIGSA: 48.33; B %
[7]; [9]
  mean efficacy (percentage damage to the weeds), DIGSA: 41.67; A %
